{
  "source": "ChEMBL document CHEMBL6096728",
  "about": "“Simultaneous Induction of Immunogenic Pyroptosis and PD-L1 Downregulation by One Single Photosensitizer for Synergistic Cancer Photoimmunotherapy” (J Med Chem, 2025)",
  "key": {"MDA-MB-231 [1]": {"test_system": "MDA-MB-231", "assay": "Induction of pyroptosis in human MDA-MB-231 cells assessed as upregulation of caspase-3 expression level at 0.1 to 0.5 uM incubated with compound for 12 hrs under dark condition by Western blot analysis", "format": "functional, cell-based", "settings": "dose 0.1-0.5 µM"}, "[2]": {"assay": "Toxicity in BALB/c mouse assessed as effect on kidney at 25 mg/kg, iv measured after 14 days under light irradiation of 300 mW.cm/2 at 400 to 700nm measured after 5 mins", "format": "organism-based", "settings": "in vivo, 336 h, 0.7 µM, time 14 day"}, "[3]": {"assay": "Phototoxicity against mouse 4T1 cells preincubated for 2 hrs followed by light irradiation of 20 mW.cm/2 at 400 at 700nm for 24 hrs by CCK-8 method", "format": "functional, cell-based", "settings": "4T1, light or radiation study"}, "[4]": {"assay": "Toxicity in BALB/c mouse assessed as effect on lung at 25 mg/kg, iv measured after 14 days under light irradiation of 300 mW.cm/2 at 400 to 700nm measured after 5 mins", "format": "organism-based", "settings": "in vivo, 336 h, 0.7 µM, time 14 day"}, "[5]": {"assay": "Toxicity in BALB/c mouse assessed as effect on platelets at 25 mg/kg, iv measured after 14 days under light irradiation of 300 mW.cm/2 at 400 to 700nm measured after 5 mins", "format": "organism-based", "settings": "in vivo, 336 h, 0.7 µM, time 14 day"}, "4T1 [6]": {"test_system": "4T1", "assay": "Inhibition of mouse 4T1 cells at 0.1 uM under light irradiation of 20 mW.cm/2 at 400 to 700nm measured after 14 days by crystal violet staining based assay", "format": "functional, cell-based", "settings": "time 14.0 day"}, "[7]": {"assay": "Drug accumulation in BALB/c mouse tumor implanted with mouse 4T1 cells assessed as increase in fluorescence intensity at 25 mg/kg, iv measured after 0 to 3 hrs by imaging based analysis", "format": "ADME, organism-based, Neoplasm", "settings": "in vivo, time 0-3 hrs"}, "[8]": {"assay": "Toxicity in BALB/c mouse assessed as effect on heart at 25 mg/kg, iv measured after 14 days by H and E staining based analysis", "format": "organism-based", "settings": "in vivo, 336 h, time 14 day"}, "[9]": {"assay": "Phototoxicity against mouse 4T1 cells preincubated for 24 hrs followed by light irradiation of 20 mW.cm/2 at 400 to 700nm for 10 mins under hypoxia condition by CCK-8 method", "format": "functional, cell-based", "settings": "4T1, light or radiation study"}, "[10]": {"assay": "Toxicity in BALB/c mouse assessed as effect on hemoglobin at 25 mg/kg, iv measured after 14 days under light irradiation of 300 mW.cm/2 at 400 to 700nm measured after 5 mins", "format": "organism-based", "settings": "in vivo, 336 h, 0.7 µM, time 14 day"}, "MDA-MB-231 [11]": {"test_system": "MDA-MB-231", "assay": "Downregulation of PD-L1 expression level in human MDA-MB-231 cells at 0.1 to 0.5 uM incubated for 24 hrs under light irradiation of 20 mW.cm/2 at 400 to 700nm for 10 mins by Western blot analysis", "format": "functional, cell-based", "settings": "dose 0.1-0.5 µM"}, "MDA-MB-231 [12]": {"test_system": "MDA-MB-231", "assay": "Induction of pyroptosis mediated immunogenic cell death in human MDA-MB-231 cells assessed as increase in CRT exposure on cell membrane at 0.5 uM incubated for 12 hrs under light irradiation of 20 mW.cm/2 at 400 to 700nm for 10 mins", "format": "functional, cell-based"}, "4T1 [13]": {"test_system": "4T1", "assay": "Antitumor immunity against mouse 4T1 cells implanted in BALB/c mouse model assessed as increase of CD4+ T cells in lymph node at 25 mg/kg, iv measured after 14 days under light irradiation of 300 mW.cm/2 at 400 to 700nm measured after 5 mins […]", "format": "functional, organism-based", "settings": "time 14.0 day"}, "MDA-MB-231 [14]": {"test_system": "MDA-MB-231", "assay": "Inhibition of STAT3 phosphorylation level in human MDA-MB-231 cells at 0.5 uM incubated for 24 hrs under light irradiation of 20 mW.cm/2 at 400 to 700nm for 10 mins by Western blot analysis", "format": "functional, cell-based"}, "[15]": {"assay": "Toxicity in BALB/c mouse assessed as effect on liver at 25 mg/kg, iv measured after 14 days by H and E staining based analysis", "format": "organism-based", "settings": "in vivo, 336 h, time 14 day"}, "[16]": {"assay": "Toxicity in BALB/c mouse assessed as effect on platelets at 25 mg/kg, iv measured after 14 days", "format": "organism-based", "settings": "in vivo, 336 h, time 14 day"}, "[17]": {"assay": "Toxicity in BALB/c mouse assessed as effect on tumor at 25 mg/kg, iv measured after 14 days by H and E staining based analysis", "format": "organism-based", "settings": "in vivo, 336 h, time 14 day"}, "MDA-MB-231 [18]": {"test_system": "MDA-MB-231", "assay": "Induction of pyroptosis in human MDA-MB-231 cells assessed as cell swelling at 0.5 uM preincubated with compound for 4 hrs followed by light irradiation of 20 mW.cm/2 at 400 to 700nm for 10 mins by confocal fluorescence microscopy analysis", "format": "functional, cell-based"}, "4T1 [19]": {"test_system": "4T1", "assay": "Induction of intracellular ROS generation in mouse 4T1 cells assessed as increase in fluorescence intensity at 0.1 uM preincubated for 2 hrs followed by compound washout further incubated with DCFH-DA probe for 30 mins under light irradiation of 20 mW.cm/2 at 400 to 700nm measured after 10 mins by flow cytometry analysis", "format": "functional, cell-based"}, "MDA-MB-231 [20]": {"test_system": "MDA-MB-231", "assay": "Induction of pyroptosis in human MDA-MB-231 cells assessed as upregulation of caspase-3 expression level at 0.1 to 0.5 uM preincubated with compound for 12 hrs followed by light irradiation of 20 mW.cm/2 at 400 to 700nm for 10 mins by Western blot analysis", "format": "functional, cell-based", "settings": "dose 0.1-0.5 µM"}, "[21]": {"assay": "Drug accumulation in BALB/c mouse tumor implanted with mouse 4T1 cells assessed as increase in fluorescence intensity at 25 mg/kg, iv measured after 3 hrs by imaging based analysis", "format": "ADME, organism-based, Neoplasm", "settings": "in vivo"}, "4T1 [22]": {"test_system": "4T1", "assay": "Antitumor immunity against mouse 4T1 cells implanted in BALB/c mouse model assessed as increase in IFN-gamma secretion in tumors at 25 mg/kg, iv measured after 14 days under light irradiation of 300 mW.cm/2 at 400 to 700nm measured after 5 mins by ELISA method", "format": "functional, organism-based", "settings": "time 14.0 day"}, "4T1 [23]": {"test_system": "4T1", "assay": "Induction of intracellular ROS generation in mouse 4T1 cells assessed as increase in fluorescence intensity at 0.1 uM preincubated for 2 hrs followed by compound washout further incubated with DCFH-DA probe for 30 mins under light irradiation of 20 mW.cm/2 at 400 to 700nm measured after 10 mins in presence of tiron by flow cytometry analysis", "format": "functional, cell-based"}, "MDA-MB-231 [24]": {"test_system": "MDA-MB-231", "assay": "Photocytotoxicity in human MDA-MB-231 cells assessed as cell viablity incubated for 24 hrs under light irradiation of 50 mW.cm/2 at 400 to 700nm measured after 10 mins in hypoxia condition by CCK-8 method", "format": "functional, cell-based", "settings": "MDA-MB-231, light or radiation study"}, "[25]": {"assay": "Drug uptake in mouse 4T1 cells assessed as increase in fluorescence intensity at 2.5 uM measured after 10 mins by flow cytometry analysis", "format": "ADME, cell-based", "settings": "4t1, 10 min"}, "MDA-MB-231 [26]": {"test_system": "MDA-MB-231", "assay": "Inhibition of human MDA-MB-231 cells at 0.1 uM under light irradiation of 20 mW.cm/2 at 400 to 700nm measured after 14 days by crystal violet staining based assay", "format": "functional, cell-based", "settings": "time 14.0 day"}, "[27]": {"assay": "Toxicity in BALB/c mouse assessed as change in body weight at 25 mg/kg, iv measured after 14 days", "format": "organism-based", "settings": "in vivo, 336 h, time 14 day"}, "[28]": {"assay": "Toxicity in BALB/c mouse assessed as effect on WBC at 25 mg/kg, iv measured after 14 days under light irradiation of 300 mW.cm/2 at 400 to 700nm measured after 5 mins", "format": "organism-based", "settings": "in vivo, 336 h, time 14 day"}, "MDA-MB-231 [29]": {"test_system": "MDA-MB-231", "assay": "Photocytotoxicity in human MDA-MB-231 cells assessed as cell viablity incubated for 24 hrs under light irradiation of 50 mW.cm/2 at 400 to 700nm measured after 10 mins in normoxia condition by CCK-8 method", "format": "functional, cell-based", "settings": "MDA-MB-231, light or radiation study"}},
  "note": "Active and inactive are the calls of the source. No cut-off for these calls is given here.",
  "data": [
    {"smiles": "O=c1cc2sc3cc(N4CCNCC4)ccc3nc-2c2ccccc12", "values": [
      {"measurement": "Activity", "setting": "MDA-MB-231 [1]", "value": "Active; Compound Showed Negligible Changes"},
      {"measurement": "Activity", "setting": "[2]", "value": "Non-toxic"},
      {"measurement": "IC50", "setting": "[3]", "value": 403, "unit": "nM"},
      {"measurement": "Activity", "setting": "[4]", "value": "Non-toxic"},
      {"measurement": "Activity", "setting": "[5]", "value": "Non-toxic"},
      {"measurement": "inhibition", "setting": "4T1 [6]", "value": "Active"},
      {"measurement": "Drug uptake", "setting": "[7]", "value": "Active"},
      {"measurement": "Activity", "setting": "[8]", "value": "Non-toxic"},
      {"measurement": "IC50", "setting": "[9]", "value": 693, "unit": "nM"},
      {"measurement": "Activity", "setting": "[10]", "value": "Non-toxic"},
      {"measurement": "Activity", "setting": "MDA-MB-231 [11]", "value": "Active"},
      {"measurement": "Activity", "setting": "MDA-MB-231 [12]", "value": "Active"},
      {"measurement": "Activity", "setting": "4T1 [13]", "value": "Active"},
      {"measurement": "inhibition", "setting": "MDA-MB-231 [14]", "value": "Active"},
      {"measurement": "Activity", "setting": "[15]", "value": "Non-toxic"},
      {"measurement": "Activity", "setting": "[16]", "value": "Non-toxic"},
      {"measurement": "Activity", "setting": "[17]", "value": "Toxic"},
      {"measurement": "Activity", "setting": "MDA-MB-231 [18]", "value": "Active"},
      {"measurement": "Activity", "setting": "4T1 [19]", "value": "Active"},
      {"measurement": "Activity", "setting": "MDA-MB-231 [20]", "value": "Active"},
      {"measurement": "Drug uptake", "setting": "[21]", "value": "Active"},
      {"measurement": "Activity", "setting": "4T1 [22]", "value": "Active"},
      {"measurement": "Activity", "setting": "4T1 [23]", "value": "inactive"},
      {"measurement": "IC50", "setting": "MDA-MB-231 [24]", "value": 983, "unit": "nM"},
      {"measurement": "Drug uptake", "setting": "[25]", "value": "Active"},
      {"measurement": "inhibition", "setting": "MDA-MB-231 [26]", "value": "Active"},
      {"measurement": "Activity", "setting": "[27]", "value": "Non-toxic"},
      {"measurement": "Activity", "setting": "[28]", "value": "Non-toxic"},
      {"measurement": "IC50", "setting": "MDA-MB-231 [29]", "value": 356, "unit": "nM"}
    ]}
  ]
}
